Results: patent US9376469B2, “Proteolytically resistant hydrogen bond surrogate helices” (New York University, priority 2011, dated 2016)
Square brackets hold non-standard residues; d marks the D form. Peptide text beside a SMILES is read from it. * marks the point of attachment. X1 = NC(=O)CC[C@@H]1NC(=O)CCC=CCN(CCC(=O)*)C(=O)[C@H](CCC(=O)O)NC1=O; β3hL = CC(C)C[C@H](N)CC(=O)O; β3hA = C[C@H](N)CC(=O)O

Legend:
HeLa cells = experiment: Cellular uptake assay, confocal microscopy of live cells; format: cell-based; details: 15 μM fluorescein-tagged peptide, 2 hours, 37° C.
Protocol: HeLa cells were cultured to sub-confluence in DMEM (Invitrogen) supplemented with 10% (v/v) fetal bovine serum (FBS) at 37° C. in a humidified incubator containing 5% CO2. Cells (˜1×10^4 cells/ml) in DMEM supplemented with 10% FBS were plated onto a 24-well culture plate containing microscope cover slides. After overnight incubation, cells were washed three times with 1 ml HBSS (Invitrogen) and supplemented with 15 μM fluorescein-tagged peptides in 1 mM PBS (pH 7.4) to a total volume of 500 μl. Peptide treated cells were incubated for another 2 hours at 37° C., washed five times with 500 μl HBSS, and imaged directly on a Leica TSC SP 2 laser scanning confocal microscope. Twenty serial 1 μm Z-section images through the middle of the cells were collected and analyzed.
It is likely that cellular uptake of HBS helices will have sequence dependence; however, it is noteworthy that peptides with an overall negative charge are internalized (Patgiri et al., Nat. Chem. Biol. 7:585 (2011), which is hereby incorporated by reference in its entirety), as positive charge is often associated with enhanced cellular uptake of peptides (Henchey et al., J. Am. Chem. Soc'y 132:941 (2010); Bernal et al., J. Am. Chem. Soc'y 129:2456 (2007); Wender et al., Proc. Nat'l Acad. Sci. USA 97:13003 (2000), each of which is hereby incorporated by reference in its entirety).

[1] = target: T1, His6-tagged Mdm2 (25-117) (Homo sapiens, UniProt Q00987); experiment: Fluorescence polarization-based competitive binding assay with Flu-p53; details: for Binding to Mdm2, result in words: negative control peptides; for Kd: read-out: KD (binding constant for His6-Mdm2)
T1 construct: made in house; host or cells: E. coli BL21 DE3 pLySS, pET-14B vector

trypsin = experiment: Trypsin digestion assay; format: in vitro ADME; details: 1 ng/μL trypsin, 4° C.
Protocol: A solution containing 500 μM of tryptophan, 1 ng/μL of trypsin, and 500 μM of peptide in PBS was incubated at 4° C. At the indicated time intervals, 100 μL of this solution was quenched with 100 μL of 2% aqueous TFA, and then injected into reversed-phase HPLC to analyze the change in the area of the peptide peak compared to the area of an internal control (tryptophan).
Trypsin was chosen as the model proteolytic enzyme because the p53 activation domain contains a lysine group near the C-terminus, providing a cleavage site for this enzyme. […] The rate of peptide digestion was measured using an LCMS assay with tryptophan as an internal control.

serum proteases = experiment: Serum stability assay; format: in vitro ADME; details: 25% human serum in RPMI, 37° C., after 24 hours, LCMS
Protocol: Peptides and 50% human serum (Sigma, St Louis, Mo., USA; product number S7023) in RPMI were temperature-equilibrated to 37° C. for 15 minutes prior to the experiments. […] After 0, 2, 5, 10, and 24 hours, three samples of each peptide (50 μl) were taken, and were precipitated by the addition of 100 μl of 6% aqueous trichloroacetic acid. The samples were cooled to 4° C. for 20 minutes and centrifuged (14000 rpm for 5 minutes). The supernatants were immediately frozen on dry ice and 100 μl of each were analyzed on an Agilent LCMS using 0.1% formic acid in water (eluent A) and 0.1% formic acid in acetonitrile (eluent B). The level of intact peptide was determined by comparing the LC % area of the peptide peak at different time points to the % area of the O-hour peak.
Human serum contains a myriad of proteases and provides a gauge for the stability of compounds under physiological conditions.

Row | Compound | Binding to Mdm2, result in words [1] | Kd [1] [µM] | other results
1 | XQeG*FSdLWKILSC^Flu-NH2 (SEQ ID NO: 11) [Flu-1] | – | – | Cellular uptake (intracellular fluorescence) (HeLa cells): intense intracellular fluorescence
2 | CC(C)C[C@@H](CC(=O)N[C@@H](C)C(=O)N[C@@H](CO)C(N)=O)NC(=O)[C@H](CCCCN)NC(=O)[C@H](Cc1c[nH]c2ccccc12)NC(=O)[C@H](CC(C)C)NC(=O)C[C@H](CC(=O)O)NC(=O)[C@H](CO)NC(=O)[C@H](C)NC(=O)CN1CC=CCCC(=O)N[C@@H](CCC(N)=O)C(=O)N[C@@H](CCC(=O)O)CC1=O [Peptide 5, XQeG*ASdLWKIAS-NH2 (SEQ ID NO: 9)] | does not bind to Mdm2 with measurable affinity | > 1000 | –
3 | CC(C)C[C@@H](CC(=O)N[C@@H](CC(C)C)C(=O)N[C@@H](CO)C(N)=O)NC(=O)[C@H](CCCCN)NC(=O)[C@H](Cc1c[nH]c2ccccc12)NC(=O)[C@H](CC(C)C)NC(=O)C[C@H](CC(=O)O)NC(=O)[C@H](CO)NC(=O)[C@H](Cc1ccccc1)NC(=O)CN1CC=CCCC(=O)N[C@@H](CCC(N)=O)C(=O)N[C@@H](CCC(=O)O)CC1=O [Peptide 1, XQeG*FSdLWKILS-NH2 (SEQ ID NO: 5)] | – | – | metabolised at 24 h, 500 μM (trypsin; trypsin (isolated protease) in PBS, after 24 hours, 500 μM peptide, read-out: Peptide cleaved by trypsin): ~20%; Stability in human serum, in words (serum proteases): remained unperturbed
4 | CC(=O)N[C@@H](CCC(N)=O)C(=O)N[C@H]1CCC[C@@H]1C(=O)NCC(=O)N[C@@H](Cc1ccccc1)C(=O)N[C@@H](CO)C(=O)N[C@H]1CCC[C@@H]1C(=O)N[C@@H](CC(C)C)C(=O)N[C@@H](Cc1c[nH]c2ccccc12)C(=O)N[C@@H](CCCCN)C(=O)N[C@H]1CCC[C@@H]1C(=O)N[C@@H](CC(C)C)C(=O)N[C@@H](CO)C(N)=O [Peptide 4, Ac-Q(ACPC)GFS(ACPC)LWK(ACPC)LS-NH2 (SEQ ID NO: 8)] | – | 0.43 ± 0.086 | Affinity for Mdm2 as compared to peptide 1 ([1]; relative to peptide 1): roughly five-fold lower affinity
5 | CC(C)C[C@@H](CC(=O)N[C@@H](Cc1c[nH]c2ccccc12)C(=O)N[C@@H](CCCCN)C(=O)N[C@@H](CC(C)C)C(=O)N[C@@H](C)CC(=O)N[C@@H](CO)C(N)=O)NC(=O)[C@H](CC(=O)O)NC(=O)[C@H](CO)NC(=O)[C@H](C)NC(=O)CCN1CC=CCCC(=O)N[C@@H](CCC(N)=O)C(=O)N[C@@H](CCC(=O)O)C1=O [Peptide 4-9, XQEg*ASDIWKLaS-NH2 (SEQ ID NO: 16)] (X1-ASD[β3hL]WKL[β3hA]S-NH2) | does not bind with any appreciable binding affinity | > 1000 | –
6 | CC(=O)N[C@@H](CCC(N)=O)C(=O)N[C@@H](CCC(=O)O)CC(=O)NCC(=O)N[C@@H](Cc1ccccc1)C(=O)N[C@@H](CO)C(=O)N[C@@H](CC(=O)O)CC(=O)N[C@@H](CC(C)C)C(=O)N[C@@H](Cc1c[nH]c2ccccc12)C(=O)N[C@@H](CCCCN)C(=O)N[C@H](CC(=O)N[C@@H](CC(C)C)C(=O)N[C@@H](CO)C(N)=O)CC(C)C [Peptide 3, Ac-QeGFSdLWKILS-NH2 (SEQ ID NO: 7)] | – | – | Stability toward trypsin degradation, in words (trypsin; PBS): stable toward degradation
